Test [1] deals with ECa-109 cell line. The test is described as follows: Induction of apoptosis in human ECa-109 cells assessed as decrease in caspase-9 incubated for 48 hrs by Western blot analysis. The conditions noted are these: dose 1-4 µM. The format is functional, cell-based. For orientation: Immunoblotting shows a protein as a band on a membrane.
In test [2] the test system is ECa-109 cell line. The experiment in a line: Induction of apoptosis in human ECa-109 cells assessed as late apoptotic cells at 4 uM incubated for 48 hrs by annexin-V-FITC and PI staining based fluorescence microscopic analysis (reference value: 2.01 %). It counts as functional.
The subject of test [3] is ECa-109 cell line. The test is described as follows: Induction of apoptosis in human ECa-109 cells assessed as necrotic cells at 1 uM incubated for 48 hrs by annexin-V-FITC and PI staining based fluorescence microscopic analysis (reference value: 1.19 %). It counts as functional.
In test [4] the test system is ECa-109 cell line. The experiment in a line: Induction of apoptosis in human ECa-109 cells assessed as necrotic cells at 4 uM incubated for 48 hrs by annexin-V-FITC and PI staining based fluorescence microscopic analysis (reference value: 1.19 %). The format is functional.
In test [5] the test system is ECa-109 cell line. The experiment in a line: Induction of ROS generation in human […] cells incubated for 48 hrs by DCFH-DA staining based fluorescence microscopic analysis. The note with it: dose 1-4 µM. It counts as functional.
For test [6], the system named is ECa-109 cell line. The experiment in a line: Induction of ROS-mediated apoptosis in human ECa-109 cells assessed as early apoptotic cells at 2 uM incubated for 48 hrs in presence of NAC by annexin V-PE and 7-AAD staining based flow cytometry analysis (reference value: 1.90 %). The format is functional. (In flow cytometry, cells or beads pass a laser one at a time.)

Test [7] relates to ECa-109 cell line. The experiment in a line: Induction of apoptosis in human ECa-109 cells assessed as viable cells at 4 uM incubated for 48 hrs by annexin-V-FITC and PI staining based fluorescence microscopic analysis (reference value: 95.8 %). The format is functional. The note with it: read-out: Activity.
Test [8] concerns ECa-109 cell line. The test is described as follows: Induction of cell cycle arrest in human ECa-109 cells assessed as accumulation in S phase at 4 uM incubated for 48 hrs by PI staining based flow cytometry analysis (reference value: 39.33 %). The format is functional.
The subject of test [9] is ECa-109 cell line. The test is described as follows: Induction of apoptosis in human ECa-109 cells assessed as necrotic cells at 2 uM incubated for 48 hrs by annexin-V-FITC and PI staining based fluorescence microscopic analysis (reference value: 1.19 %). It counts as functional.
In test [10] the test system is ECa-109 cell line. The experiment in a line: Induction of cell cycle arrest in human ECa-109 cells assessed as accumulation in G0/G1 phase at 1 uM incubated for 48 hrs by PI staining based flow cytometry analysis (reference value: 52.28 %). It counts as functional.
In test [11] the test system is ECa-109 cell line. The experiment in a line: Induction of ROS-mediated apoptosis in human ECa-109 cells assessed as necrotic cells at 2 uM incubated for 48 hrs in presence of NAC by annexin V-PE and 7-AAD staining based flow cytometry analysis (reference value: 1.09 %). It counts as functional.
In test [12] the test system is ECa-109 cell line. The experiment in a line: Induction of apoptosis in human ECa-109 cells assessed as downregulation of Bcl-xl incubated for 48 hrs by Western blot analysis. The format is functional, cell-based. The conditions noted are these: dose 1-4 µM.
Test [13] deals with ECa-109 cell line. The experiment in a line: Induction of ROS-mediated apoptosis in human ECa-109 cells assessed as necrotic cells at 1 uM incubated for 48 hrs by annexin V-PE and 7-AAD staining based flow cytometry analysis (reference value: 0.729 %). The format is functional.
In test [14] the test system is ECa-109 cell line. The experiment in a line: Induction of ROS-mediated apoptosis in human ECa-109 cells assessed as early apoptotic cells at 1 uM incubated for 48 hrs by annexin V-PE and 7-AAD staining based flow cytometry analysis (reference value: 2.70 %). The format is functional.
For test [15], the system named is ECa-109 cell line. The experiment in a line: Induction of apoptosis in human ECa-109 cells assessed as viable cells at 1 uM incubated for 48 hrs by annexin-V-FITC and PI staining based fluorescence microscopic analysis (reference value: 95.8 %). It counts as functional. The note with it: read-out: Activity.
For test [16], the system named is ECa-109 cell line. The experiment in a line: Induction of cell cycle arrest in human ECa-109 cells assessed as accumulation in S phase at 1 uM incubated for 48 hrs by PI staining based flow cytometry analysis (reference value: 39.33 %). It counts as functional.
The test system of test [17] is ECa-109 cell line. The experiment in a line: Induction of ROS-mediated apoptosis in human ECa-109 cells assessed as viable cells at 2 uM incubated for 48 hrs in presence of NAC by annexin V-PE and 7-AAD staining based flow cytometry analysis (reference value: 94 %). The format is functional. The note with it: read-out: Activity.
For test [18], the system named is ECa-109 cell line. The experiment in a line: Induction of apoptosis in human ECa-109 cells assessed as late apoptotic cells at 2 uM incubated for 48 hrs by annexin-V-FITC and PI staining based fluorescence microscopic analysis (reference value: 2.01 %). It counts as functional.
Test [19] has as its system ECa-109 cell line. The test is described as follows: Induction of apoptosis in human ECa-109 cells assessed as downregulation of Bcl-2 incubated for 48 hrs by Western blot analysis. The format is functional, cell-based. The conditions noted are these: dose 1-4 µM.
For test [20], the system named is SGC-7901. The test is described as follows: Induction of ROS-mediated apoptosis in human SGC-7901 cells assessed as early apoptotic cells at 1 uM incubated for 48 hrs by annexin V-PE and 7-AAD staining based flow cytometry analysis (reference value: 1.89 %). It counts as functional.
Test [21] deals with SGC-7901. The test is described as follows: Induction of ROS generation in human SGC-7901 cells incubated for 48 hrs by DCFH-DA staining based fluorescence microscopic analysis. The format is functional, cell-based. The note with it: dose 1-4 µM.
For test [22], the system named is SGC-7901. The test is described as follows: Induction of ROS-mediated apoptosis in human SGC-7901 cells assessed as viable cells at 4 uM incubated for 48 hrs by annexin V-PE and 7-AAD staining based flow cytometry analysis (reference value: 93.6 %). It counts as functional. The conditions noted are these: read-out: Activity.
The test system of test [23] is SGC-7901. The experiment in a line: Induction of ROS-mediated apoptosis in human SGC-7901 cells assessed as necrotic cells at 1 uM incubated for 48 hrs by annexin V-PE and 7-AAD staining based flow cytometry analysis (reference value: 0.733 %). The format is functional.
Test [24] has as its system SGC-7901. The test is described as follows: Induction of ROS-mediated apoptosis in human SGC-7901 cells assessed as viable cells at 4 uM incubated for 48 hrs in presence of NAC by annexin V-PE and 7-AAD staining based flow cytometry analysis (reference value: 94.8 %). The format is functional. The conditions noted are these: read-out: Activity.
Test [25] deals with SGC-7901. The test is described as follows: Induction of apoptosis in human SGC-7901 cells assessed as late apoptotic cells at 2 uM incubated for 48 hrs by annexin-V-FITC and PI staining based fluorescence microscopic analysis (reference value: 3.87 %). It counts as functional.
Test [26] has as its system SGC-7901. The test is described as follows: Induction of apoptosis in human SGC-7901 cells assessed as decrease in PARP incubated for 48 hrs by Western blot analysis. It counts as functional, cell-based. The note with it: dose 1-4 µM.
Test [27] concerns SGC-7901. The experiment in a line: Induction of ROS-mediated apoptosis in human SGC-7901 cells assessed as necrotic cells at 4 uM incubated for 48 hrs by annexin V-PE and 7-AAD staining based flow cytometry analysis (reference value: 0.733 %). The format is functional.
The test system of test [28] is SGC-7901. The experiment in a line: Induction of apoptosis in human SGC-7901 cells assessed as early apoptotic cells at 4 uM incubated for 48 hrs by annexin-V-FITC and PI staining based fluorescence microscopic analysis (reference value: 1.87 %). It counts as functional.
For test [29], the system named is SGC-7901. The experiment in a line: Induction of ROS-mediated apoptosis in human SGC-7901 cells assessed as early apoptotic cells at 2 uM incubated for 48 hrs by annexin V-PE and 7-AAD staining based flow cytometry analysis (reference value: 1.89 %). The format is functional.
In test [30] the test system is SGC-7901. The test is described as follows: Induction of apoptosis in human SGC-7901 cells assessed as downregulation of Bcl-xl incubated for 48 hrs by Western blot analysis. The note with it: dose 1-4 µM. It counts as functional, cell-based.
The test system of test [31] is SGC-7901. The experiment in a line: Induction of cell cycle arrest in human SGC-7901 cells assessed as accumulation in G2/M phase at 1 uM incubated for 48 hrs by PI staining based flow cytometry analysis (reference value: 11.48 %). It counts as functional.
For test [32], the system named is SGC-7901. The test is described as follows: Induction of ROS-mediated apoptosis in human SGC-7901 cells assessed as necrotic cells at 1 uM incubated for 48 hrs in presence of NAC by annexin V-PE and 7-AAD staining based flow cytometry analysis (reference value: 0.623 %). It counts as functional.

Each structure is given as a SMILES string.

With `COc1ccccc1Cn1n[n+](C)c2c1C(C)(C)[C@@H]1CC[C@]3(C)[C@H](CC[C@@H]4[C@H]5[C@H]6OC[C@@]5(CCC6(C)C)CC[C@]43C)[C@@]1(C)C2.[I-]`, the Activity entry in test [1] was “Dose-dependent effect”; in test [2] it was 92.2%; in test [3], 0.624%; in test [4], 3.58%; in [5] it was “Dose-dependent effect”; in [6], 10.1%. In addition, the Activity in [8] was 43.8%; in [9], 1.32%; in test [10], 54.16%; in [11], 5.48%; in test [12], “Dose-dependent effect”; in test [13] it was 2.92%. Also, the Activity was 11.6% in test [14], 35.03% in [16], 23% in test [18] and “Dose-dependent effect” in test [19]. Moreover, the viability at 4 µM in [7] came out at 1.26%. In addition, the viability at 1 µM in [15] turned out to be 69.1%. Besides, the viability at 2 µM in test [17] came to 66.2%.

For `C[n+]1nn(Cc2c(F)cccc2Cl)c2c1C[C@]1(C)[C@H]3CC[C@@H]4[C@H]5[C@H]6OC[C@@]5(CCC6(C)C)CC[C@@]4(C)[C@]3(C)CC[C@H]1C2(C)C.[I-]`, the Activity in test [20] is 13.7%; in test [21], “Dose-dependent effect”; in test [23], 0.838%; in [25], 8.46%; in test [26], “Dose-dependent effect”; in [27], 0.028%. Moreover, the Activity in test [28] is 2.07%; in test [29], 26.5%; in test [30], “Dose-dependent effect”; in test [31] it was 5.39%; in test [32], 1.21%. Moreover, the viability at 4 µM in test [22] is 0.152%; in test [24] it was 15.3%.

These data come from ChEMBL document CHEMBL4706545, “Antiproliferative effect of mitochondria-targeting allobetulin 1,2,3-triazolium salt derivatives and their mechanism of inducing apoptosis of cancer cells” (Eur J Med Chem, 2020).
